One test concerns the target Integrin alpha-5/beta-1 (Homo sapiens, UniProt P05556+P08648). Nature of the test: Binding affinity to integrin alpha5/beta1 heterodimer in human K562 cells assessed as inhibition of integrin-mediated human K562 cell adhesion to fibronectin incubated for 30 mins in presence of MnCl2. Format: cell-based.
The target in a further test is Integrin alpha-V/beta-3 (Homo sapiens, UniProt P05106+P06756). As to the kind of experiment: Binding affinity to integrin alphav/beta3 heterodimer in human M21 cells assessed as inhibition of integrin-mediated human M21 cell adhesion to vitronectin incubated for 30 mins in presence of MnCl2. The format is cell-based.

Data on two molecules can be found in ChEMBL document CHEMBL3751710, “Cyclic RGD peptidomimetics containing 4- and 5-amino-cyclopropane pipecolic acid (CPA) templates as dual αVβ3 and α5β1 integrin ligands” (Bioorg Med Chem, 2016).

Structures are written as SMILES.

Integrin alpha-5/beta-1, sequence (P05556 21-798 limits assumed): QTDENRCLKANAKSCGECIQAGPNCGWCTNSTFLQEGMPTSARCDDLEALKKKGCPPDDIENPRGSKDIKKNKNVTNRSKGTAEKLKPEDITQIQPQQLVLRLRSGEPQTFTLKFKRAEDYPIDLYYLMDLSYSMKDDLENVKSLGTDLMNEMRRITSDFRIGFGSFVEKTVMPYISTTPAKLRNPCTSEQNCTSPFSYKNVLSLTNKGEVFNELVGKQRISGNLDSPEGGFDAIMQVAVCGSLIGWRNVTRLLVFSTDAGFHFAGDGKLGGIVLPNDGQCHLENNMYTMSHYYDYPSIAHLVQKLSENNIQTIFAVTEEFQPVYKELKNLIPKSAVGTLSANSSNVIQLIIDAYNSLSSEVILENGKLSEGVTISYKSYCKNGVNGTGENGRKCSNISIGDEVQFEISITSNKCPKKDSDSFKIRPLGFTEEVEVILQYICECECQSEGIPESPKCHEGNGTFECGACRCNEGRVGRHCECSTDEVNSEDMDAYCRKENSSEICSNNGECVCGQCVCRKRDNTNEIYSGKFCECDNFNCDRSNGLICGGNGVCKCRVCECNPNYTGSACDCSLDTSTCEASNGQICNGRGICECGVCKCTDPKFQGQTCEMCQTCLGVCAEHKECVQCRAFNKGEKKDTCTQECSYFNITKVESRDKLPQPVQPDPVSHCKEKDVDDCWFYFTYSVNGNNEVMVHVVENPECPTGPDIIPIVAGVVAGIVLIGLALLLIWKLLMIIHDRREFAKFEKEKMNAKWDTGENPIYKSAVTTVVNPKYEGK
Integrin alpha-5/beta-1, sequence (P08648 42-894 limits assumed): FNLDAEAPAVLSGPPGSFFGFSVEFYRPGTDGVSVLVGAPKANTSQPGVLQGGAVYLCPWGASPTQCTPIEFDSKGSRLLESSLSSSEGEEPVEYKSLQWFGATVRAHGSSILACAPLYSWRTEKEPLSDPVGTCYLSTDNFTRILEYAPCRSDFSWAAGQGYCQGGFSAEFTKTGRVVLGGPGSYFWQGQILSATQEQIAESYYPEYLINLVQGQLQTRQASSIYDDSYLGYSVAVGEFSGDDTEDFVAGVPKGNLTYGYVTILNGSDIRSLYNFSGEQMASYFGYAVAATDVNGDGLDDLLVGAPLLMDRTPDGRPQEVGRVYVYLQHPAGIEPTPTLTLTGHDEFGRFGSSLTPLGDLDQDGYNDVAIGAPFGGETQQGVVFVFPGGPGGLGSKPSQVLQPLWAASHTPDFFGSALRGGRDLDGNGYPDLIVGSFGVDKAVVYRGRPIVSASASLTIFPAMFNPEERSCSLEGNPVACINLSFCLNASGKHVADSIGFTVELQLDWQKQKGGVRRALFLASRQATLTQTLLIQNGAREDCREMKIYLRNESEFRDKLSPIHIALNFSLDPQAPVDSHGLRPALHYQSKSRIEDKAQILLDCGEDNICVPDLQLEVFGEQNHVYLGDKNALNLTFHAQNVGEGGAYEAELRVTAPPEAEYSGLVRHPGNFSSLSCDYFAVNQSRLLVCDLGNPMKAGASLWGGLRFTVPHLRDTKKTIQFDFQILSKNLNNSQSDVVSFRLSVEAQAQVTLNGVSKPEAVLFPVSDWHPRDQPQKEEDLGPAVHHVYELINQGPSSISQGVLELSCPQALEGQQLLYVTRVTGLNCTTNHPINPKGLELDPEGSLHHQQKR
Integrin alpha-5/beta-1, sequence (P08648 895-1049 limits assumed): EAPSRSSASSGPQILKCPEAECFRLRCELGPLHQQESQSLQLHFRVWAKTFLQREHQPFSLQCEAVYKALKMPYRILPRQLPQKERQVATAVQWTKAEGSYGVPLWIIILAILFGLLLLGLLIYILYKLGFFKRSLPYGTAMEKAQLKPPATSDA
Integrin alpha-V/beta-3, sequence (P05106 27-788 limits assumed): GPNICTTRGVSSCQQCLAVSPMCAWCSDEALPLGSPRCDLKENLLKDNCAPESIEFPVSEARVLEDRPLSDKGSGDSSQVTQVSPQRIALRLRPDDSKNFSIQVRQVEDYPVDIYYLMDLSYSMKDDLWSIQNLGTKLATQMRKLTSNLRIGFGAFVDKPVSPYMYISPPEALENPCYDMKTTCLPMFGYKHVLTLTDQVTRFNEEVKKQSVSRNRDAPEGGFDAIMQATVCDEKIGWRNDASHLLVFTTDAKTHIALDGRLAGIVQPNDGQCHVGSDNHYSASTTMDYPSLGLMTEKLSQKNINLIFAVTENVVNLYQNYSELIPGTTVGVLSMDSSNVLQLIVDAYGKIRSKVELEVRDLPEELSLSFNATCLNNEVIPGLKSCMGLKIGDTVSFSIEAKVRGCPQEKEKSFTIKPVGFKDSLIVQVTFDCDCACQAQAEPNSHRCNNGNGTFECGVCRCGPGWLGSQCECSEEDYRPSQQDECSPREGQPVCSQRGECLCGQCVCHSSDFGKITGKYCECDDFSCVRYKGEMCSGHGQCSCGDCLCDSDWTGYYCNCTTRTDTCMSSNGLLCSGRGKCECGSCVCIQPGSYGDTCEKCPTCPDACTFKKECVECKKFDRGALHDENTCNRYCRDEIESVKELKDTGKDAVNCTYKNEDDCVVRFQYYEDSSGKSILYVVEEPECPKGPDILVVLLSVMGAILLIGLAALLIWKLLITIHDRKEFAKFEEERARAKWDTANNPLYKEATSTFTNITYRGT
Integrin alpha-V/beta-3, sequence (P06756 31-889 limits assumed): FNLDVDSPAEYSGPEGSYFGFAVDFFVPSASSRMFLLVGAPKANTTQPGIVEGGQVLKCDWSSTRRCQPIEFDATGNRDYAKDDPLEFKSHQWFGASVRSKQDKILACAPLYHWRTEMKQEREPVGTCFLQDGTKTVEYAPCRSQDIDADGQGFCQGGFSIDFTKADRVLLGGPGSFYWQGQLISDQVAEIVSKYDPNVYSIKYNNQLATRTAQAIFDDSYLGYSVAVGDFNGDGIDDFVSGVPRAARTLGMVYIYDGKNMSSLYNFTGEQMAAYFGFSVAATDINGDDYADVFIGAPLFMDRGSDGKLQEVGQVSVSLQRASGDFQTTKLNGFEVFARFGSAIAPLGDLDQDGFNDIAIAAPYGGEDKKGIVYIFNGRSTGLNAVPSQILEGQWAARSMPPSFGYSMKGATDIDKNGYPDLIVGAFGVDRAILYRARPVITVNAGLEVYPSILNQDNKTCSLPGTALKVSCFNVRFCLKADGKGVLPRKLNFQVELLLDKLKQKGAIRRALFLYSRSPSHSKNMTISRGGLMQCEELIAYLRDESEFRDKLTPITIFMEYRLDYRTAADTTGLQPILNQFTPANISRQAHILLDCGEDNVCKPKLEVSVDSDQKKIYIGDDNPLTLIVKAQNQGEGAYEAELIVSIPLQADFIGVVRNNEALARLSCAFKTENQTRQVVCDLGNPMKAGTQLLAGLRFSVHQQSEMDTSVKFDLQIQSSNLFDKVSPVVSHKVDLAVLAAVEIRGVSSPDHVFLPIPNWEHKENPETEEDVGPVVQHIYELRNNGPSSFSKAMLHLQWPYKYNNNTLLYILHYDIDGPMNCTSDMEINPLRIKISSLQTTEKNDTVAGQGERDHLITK
Integrin alpha-V/beta-3, sequence (P06756 891-1048 limits assumed): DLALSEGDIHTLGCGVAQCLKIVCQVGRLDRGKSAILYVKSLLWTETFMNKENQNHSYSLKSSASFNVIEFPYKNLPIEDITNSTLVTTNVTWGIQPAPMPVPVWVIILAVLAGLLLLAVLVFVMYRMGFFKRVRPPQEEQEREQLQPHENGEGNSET

For the molecule `COC(=O)N1C[C@H]2C[C@H]3C[C@]31C(=O)N[C@@H](CCCNC(=N)N)C(=O)NCC(=O)N[C@@H](CC(=O)O)C(=O)N2`, the values for the half-inhibitory concentration (IC50) on Integrin alpha-5/beta-1 and on Integrin alpha-V/beta-3 were 15 nM and 34 nM, respectively.
The like results for `COC(=O)N1CC[C@H]2NC(=O)[C@H](CC(=O)O)NC(=O)CNC(=O)[C@H](CCCNC(=N)N)NC(=O)[C@@]13C[C@@H]23` were, in that order, 26 nM and 2.4 nM.
